In US9751886B2, “4-amino-6-phenyl-6,7-dihydro[1,2,3]triazolo[1,5-A]pyrazine derivatives as inhibitors of beta-secretase (BACE)” (Janssen Pharmaceutica NV, priority 2013, dated 2017):

How the values were obtained:
[1] = biological target: recombinant BACE2 protein (Homo sapiens (Human), UniProt Q9Y5Z0); experiment: BACE2 Biochemical FRET based assay; details: 0.4 μg/ml BACE2, 10 μM substrate, 450 min, pH 5.0
Text: (§1) This assay is a Fluorescence Resonance Energy Transfer Assay (FRET) based assay. The substrate for this assay contains the ‘Swedish’ Lys-Met/Asn-Leu mutation of the amyloid precursor protein (APP) beta-secretase cleavage site. This substrate also contains two fluorophores: (7-methoxycoumarin-4-yl) acetic acid (Mca) is a fluorescent donor with excitation wavelength at 320 nm and emission at 405 nm and 2,4-Dinitrophenyl (Dnp) is a proprietary quencher acceptor. […] Upon cleavage by the beta-secretase, the fluorophore Mca is separated from the quenching group Dnp, restoring the full fluorescence yield of the donor. The increase in fluorescence is linearly related to the rate of proteolysis.
Briefly in a 384-well format recombinant BACE2 protein in a final concentration of 0.4 μg/ml is incubated for 450 minutes at room temperature with 10 μM substrate in incubation buffer (50 mM Citrate buffer pH 5.0, 0.05% PEG, no DMSO) in the absence or presence of compound. Next the amount of proteolysis is directly measured by fluorescence measurement at T=0 and T=450 (excitation at 320 nm and emission at 405 nm). Results are expressed in RFU (Relative Fluorescence Units), as difference between T450 and TO.

[2] = biological target: T1, recombinant BACE1 protein (Homo sapiens (Human), UniProt P56817); experiment: BACE1 Biochemical FRET based assay - Method 1; details: 1 μg/ml BACE1, 10 μM substrate, 120 min, pH 5.0; read-out: BACE1 Biochemical FRET based assay - Method 1 pIC50 (converted)
Text: as §1, with “this assay is an APP derived 13 amino acids peptide that contains the” for “this assay contains the”, “cleavage by BACE1, the fluorophore” for “cleavage by the beta-secretase, the fluorophore”
Briefly in a 384-well format recombinant BACE1 protein in a final concentration of 1 μg/ml is incubated for 120 minutes at room temperature with […] substrate in incubation buffer (40 mM Citrate buffer pH 5.0, 0.04% PEG, 4% DMSO) in the absence or presence of compound. Next the amount of proteolysis is directly measured by fluorescence measurement at T=0 and T=120 (excitation at 320 nm and emission at 405 nm). Results are expressed in RFU (Relative Fluorescence Units), as difference between T120 and TO.

[3] = test system: Abeta 1-42 secreted by human neuroblastoma SKNBE2 cells expressing wild type hAPP695; experiment: BACE1 cellular αLisa assay in SKNBE2 cells, Abeta 1-42; format: cell-based; details: Homo sapiens, 18 hours incubation, read-out: Cellular αLisa assay in SKNBE2 cells Abeta 42 pIC50 (converted)
Protocol: (§2) In two αLisa assays the levels of Abeta total and Abeta 1-42 produced and secreted into the medium of human neuroblastoma SKNBE2 cells are quantified. The assay is based on the human neuroblastoma SKNBE2 expressing the wild type Amyloid Precursor Protein (hAPP695). The compounds are diluted and added to these cells, incubated for 18 hours and then measurements of Abeta 1-42 and Abeta total are taken. Abeta total and Abeta 1-42 are measured by sandwich αLisa. αLisa is a sandwich assay using biotinylated antibody AbN/25 attached to streptavidin coated beads and antibody Ab4G8 or cAb42/26 conjugated acceptor beads for the detection of Abeta total and Abeta 1-42 respectively. In the presence of Abeta total or Abeta 1-42, the beads come into close proximity. The excitation of the donor beads provokes the release of singlet oxygen molecules that trigger a cascade of energy transfer in the acceptor beads, resulting in light emission.

[4] = test system: Abeta total secreted by human neuroblastoma SKNBE2 cells expressing wild type hAPP695; experiment: BACE1 cellular αLisa assay in SKNBE2 cells, Abeta total; format: cell-based; details: Homo sapiens, 18 hours incubation, read-out: Cellular αLisa assay in SKNBE2 cells Abetatotal pIC50 (converted)
Protocol: as §2

[5] = biological target: T1, recombinant BACE1 protein; experiment: BACE1 Biochemical FRET based assay - Method 2; details: 0.04 μg/ml BACE1, 20 μM substrate, 450 min, pH 5.0
Text: as §1, with “this assay is an APP derived 13 amino acids peptide that contains the” for “this assay contains the”, “cleavage by BACE1, the fluorophore” for “cleavage by the beta-secretase, the fluorophore”
Briefly in a 384-well format recombinant BACE1 protein in a final concentration of 0.04 μg/ml is incubated for 450 minutes at room temperature with 20 μM substrate in incubation buffer (50 mM Citrate buffer pH 5.0, 0.05% PEG) in the presence of compound or DMSO. Next the amount of proteolysis is directly measured by fluorescence measurement (excitation at 320 nm and emission at 405 nm) at different incubation times (0, 30, 60, 90, 120 and 450 min). For every experiment a time curve (every 30 min between 0 min and 120 min) is used to determine the time where we find the lowest basal signal of the high control. The signal at this time (Tx) is used to subtract from the signal at 450 min. Results are expressed in RFU, as difference between T450 and Tx.

T1 sequence (P56817 46-501): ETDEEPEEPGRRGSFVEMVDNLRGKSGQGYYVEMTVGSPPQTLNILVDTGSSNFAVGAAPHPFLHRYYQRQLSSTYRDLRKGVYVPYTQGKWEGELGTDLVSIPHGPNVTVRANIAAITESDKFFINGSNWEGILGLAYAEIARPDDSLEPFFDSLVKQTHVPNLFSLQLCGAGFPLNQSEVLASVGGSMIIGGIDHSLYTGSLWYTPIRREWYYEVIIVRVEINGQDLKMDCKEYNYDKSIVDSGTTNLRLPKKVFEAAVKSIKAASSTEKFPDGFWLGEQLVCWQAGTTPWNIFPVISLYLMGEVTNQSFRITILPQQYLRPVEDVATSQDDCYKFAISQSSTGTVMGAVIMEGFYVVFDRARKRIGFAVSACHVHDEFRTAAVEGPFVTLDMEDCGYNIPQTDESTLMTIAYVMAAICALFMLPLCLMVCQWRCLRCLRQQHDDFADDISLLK
Sequence of recombinant BACE2 protein (Q9Y5Z0 63-518): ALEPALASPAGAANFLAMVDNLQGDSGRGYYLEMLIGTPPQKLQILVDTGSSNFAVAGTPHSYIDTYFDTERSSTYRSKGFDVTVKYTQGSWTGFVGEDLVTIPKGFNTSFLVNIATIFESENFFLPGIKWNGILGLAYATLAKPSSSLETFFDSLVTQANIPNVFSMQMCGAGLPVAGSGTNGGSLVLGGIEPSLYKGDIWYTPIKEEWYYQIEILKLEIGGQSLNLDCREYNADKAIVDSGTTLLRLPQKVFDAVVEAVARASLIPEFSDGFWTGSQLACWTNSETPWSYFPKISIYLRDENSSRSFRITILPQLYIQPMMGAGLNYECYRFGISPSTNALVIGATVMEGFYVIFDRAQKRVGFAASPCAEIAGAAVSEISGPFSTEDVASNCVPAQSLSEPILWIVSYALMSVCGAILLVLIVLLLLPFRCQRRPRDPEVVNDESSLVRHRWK

- BACE2 Biochemical FRET based assay pIC50 [1]: 8.48
- IC50 [2]: 5.25 nM
- IC50 [3]: 4.47 nM
- IC50 [4]: 3.24 nM
- BACE1 Biochemical FRET based assay - Method 2 pIC50 [5]: 8.37
SMILES: C[C@@]1(c2cc(NC(=O)c3ccc(F)cn3)ccc2F)Cn2nncc2C(N)=N1 [Compound 1, N-{3-[(6R)-4-amino-6-methyl-6,7-dihydro[1,2,3]triazolo[1,5-a]pyrazin-6-yl]-4-fluorophenyl}-5-fluoropyridine-2-carboxamide]
